Columns and labels:
MOLP-8 cells = assay: Cell proliferation assay (alamarBlue), MOLP-8; format: cell-based; settings: Homo sapiens, MOLP-8; multiple myeloma cell line, 120 h incubation
Protocol: (§1) In accordance with the invention, the ability of the substances to inhibit cell proliferation was determined. Cell viability was determined by means of the alamarBlue® reagent (Invitrogen) in a Victor X3 Multilabel Reader (Perkin Elmer). The excitation wavelength was 530 nm and the emission wavelength […].
The MOLP-8 cells (DSMZ, ACC 569) were sown at a concentration of 4000 cells/well in 100 μl of growth medium (RPMI1640, 20% FCS) on 96-well microtitre plates.
(§2) The MDA-MB-231 cells (DSMZ, ACC 732) were sown at a concentration of 4000 cells/well in 100 μl of growth medium (DMEM/Ham's F12 medium, 10% FCS) on 96-well microtitre plates. After overnight incubation at 37° C., the fluorescence values (CI values) were determined. Then the plates were treated with various substance dilutions (1E-5 M, 3E-6 M, 1E-6 M, 3E-7 M, 1E-7 M, 3E-8 M, 1E-8 M) and incubated at 37° C. for 72 (MV4-11, LOX-IMVI cells), 96 (MOLM-13, B16F10, […] cells), 120 (MOLP-8, KMS-12-PE cells) or 168 (LAPC-4 cells) hours. Subsequently, the fluorescence values were determined (CO values). For the data analysis, the CI values were subtracted from the CO values and the results were compared between cells which had been treated with various dilutions of the substance or only with buffer solution. This was used to calculate the IC50 values (substance concentration required for 50% inhibition of cell proliferation).
(§3) The substances were examined in the cell lines of Table 1 which, in an exemplary manner, represent the stated indications: […]

B16F10 cells = assay: Cell proliferation assay (alamarBlue), B16F10; format: cell-based; settings: Mus musculus, B16-F10; melanoma (BRAF wild-type) cell line, 96 h incubation
Protocol: as §1
The B16F10 cells (ATCC, CRL-6475) were sown at a concentration of 300-500 cells/well in 100 μl of growth medium (DMEM with phenol red, 10% FCS) on 96-well microtitre plates.
as §2, §3

BRD4 (BD1) = biological target: T1, BRD4 (BD1) (Homo sapiens, UniProt O60885); assay: Binding assay BRD4/acetylated peptide H4 (TR-FRET protein-protein interaction assay); settings: BRD4 (BD1) / acetylated histone H4 peptide
T1 construct: longer constructs also being possible, preferably amino acids 44-168; made in house; host or cells: E. coli
Source text: To assess the BRD4 binding strength of the substances described in this application, the ability thereof to inhibit the interaction between BRD4 (BD1) and acetylated histone H4 in a dose-dependent manner was quantified.
For this purpose, a time-resolved fluorescence resonance energy transfer (TR-FRET) assay was used, which measures the binding between N-terminally His6-tagged BRD4 (BD1) (amino acids 67-152, longer constructs also being possible, preferably amino acids 44-168) and a synthetic acetylated histone H4 (Ac—H4) peptide with sequence GRGK(Ac)GGK(Ac)GLGK(Ac)GGAK(Ac)RHGSGSK-biotin. The recombinant BRD4 protein produced in-house according to Filippakopoulos et al., Nature, 2010, 468:1119-1123 was expressed in E. coli and purified by means of (Ni-NTA) affinity and (Sephadex G-75) size exclusion chromatography. The Ac—H4 peptide can be purchased, for example, from Biosyntan (Berlin, Germany).
In the assay, typically 11 different concentrations of each substance (0.1 nM, 0.33 nM, 1.1 nM, 3.8 nM, 13 nM, 44 nM, 0.15 μM, 0.51 μM, 1.7 μM, 5.9 μM and 20 μM) were analysed as duplicates on the same microtitre plate. For this purpose, 100-fold concentrated solutions in DMSO were prepared by serial dilutions (1:3.4) of a 2 mM stock solution into a clear, 384-well microtitre plate (Greiner Bio-One, Frickenhausen, Germany). From this, 50 nl were transferred into a black test plate (Greiner Bio-One, Frickenhausen, Germany). The test was started by the addition of 2 μl of a 2.5-fold concentrated BRD4 solution (final concentration typically 10 nM in the 5 μl of reaction volume) in aqueous assay buffer [50 mM HEPES pH 7.5, 50 mM sodium chloride (NaCl), 0.25 mM CHAPS and 0.05% serum albumin (BSA)] to the substances in the test plate. This was followed by a 10-minute incubation step at 22° C. for the pre-equilibration of putative complexes between BRD4 and the substances.
The mixture was then incubated in the dark at 22° C. for one hour and then at 4° C. for at least 3 hours and for no longer than overnight. The formation of BRD4/Ac—H4 complexes was determined by the measurement of the resonance energy transfer from the streptavidin-Eu cryptate to the anti-6His-XL665 antibody present in the reaction. For this purpose, the fluorescence emission was measured at 620 nm and 665 nm after excitation at 330-350 nm in a TR-FRET measuring instrument, for example a Rubystar or Pherastar (both from BMG Lab Technologies, Offenburg, Germany) or a Viewlux (Perkin-Elmer). The ratio of the emissions at 665 nm and at […] was taken as an indicator of the amount of BRD4/Ac—H4 complexes formed.
The data (ratios) obtained were normalized, with 0% inhibition corresponding to the mean from the measurements for a set of controls (typically 32 data points) in which all the reagents were present. In these, in place of test substances, 50 nl of DMSO (100%) were used. Inhibition of 100% corresponded to the mean from the measurements for a set of controls (typically 32 data points) in which all the reagents except BRD4 were present. The IC50 was determined by regression analysis based on a 4-parameter equation (minimum, maximum, IC50, Hill; Y=max+(min−max)/(1+(X/IC50)^Hill)).

MOLM-13 cells = assay: Cell proliferation assay (alamarBlue), MOLM-13; format: cell-based; settings: Homo sapiens, MOLM-13; acute myeloid leukaemia cell line, 96 h incubation
Protocol: as §1
The MOLM-13 cells (DSMZ, ACC 554) were sown at a concentration of 4000 cells/well in 100 μl of growth medium (RPMI1640, 10% FCS) on 96-well microtitre plates.
as §2, §3

Compound `CNC(=O)N1N=C(c2ccc(N3CC4(CN(C(=O)OC(C)(C)C)C4)C3)cc2)c2cc(OC)c(OC)cc2CC1C` (racemic) [Example 8, tert-butyl 6-{4-[(±)-7,8-dimethoxy-4-methyl-3-(methylcarbamoyl)-4,5-dihydro-3H-2,3-benzodiazepine-1-yl]phenyl}-2,6-diazaspiro[3.3]heptane-2-carboxylate] has an IC50 (MOLP-8 cells) of 160 nM, an IC50 (B16F10 cells) of 180 nM and an IC50 (BRD4 (BD1)) of 140 nM. The IC50 (MOLM-13 cells) was 260 nM.

With `CNC(=O)N1N=C(c2ccc(N3CCC4(CCCC4)CC3)cc2)c2cc(OC)c(OC)cc2CC1C` (racemic) [Example 9, (±)-1-[4-(8-azaspiro[4.5]dec-8-yl)phenyl]-7,8-dimethoxy-N,4-dimethyl-4,5-dihydro-3H-2,3-benzodiazepine-3-carboxamide] the IC50 (MOLP-8 cells) was 460 nM, the IC50 (B16F10 cells) was 140 nM and the IC50 (BRD4 (BD1)) was 250 nM. For the same compound, the IC50 (MOLM-13 cells) was 500 nM.

Compound `CNC(=O)N1N=C(c2ccc(N3CC4(CN(Cc5ccccc5)C4)C3)cc2)c2cc(OC)c(OC)cc2CC1C` (racemic) [Example 10, (±)-1-[4-(6-benzyl-2,6-diazaspiro[3.3]hept-2-yl)phenyl]-7,8-dimethoxy-N,4-dimethyl-4,5-dihydro-3H-2,3-benzodiazepine-3-carboxamide] has an IC50 (MOLP-8 cells) of 80 nM, an IC50 (B16F10 cells) of 150 nM and an IC50 (BRD4 (BD1)) of 80 nM. The IC50 (MOLM-13 cells) was 150 nM.

For `CNC(=O)N1N=C(c2ccc(N3CCCC4(COC4)C3)cc2)c2cc(OC)c(OC)cc2CC1C` (racemic) [Example 11, (±)-7,8-dimethoxy-N,4-dimethyl-1-[4-(2-oxa-6-azaspiro[3.5]non-6-yl)phenyl]-4,5-dihydro-3H-2,3-benzodiazepine-3-carboxamide], the IC50 (MOLP-8 cells) was 100 nM, the IC50 (B16F10 cells) was 100 nM and the IC50 (BRD4 (BD1)) was 60 nM. The IC50 (MOLM-13 cells) was 160 nM.

Work on `CNC(=O)N1N=C(c2ccc(N3CCC4(CC3)COC4)cc2)c2cc(OC)c(OC)cc2CC1C` (racemic) [Example 12, (±)-7,8-dimethoxy-N,4-dimethyl-1-[4-(2-oxa-7-azaspiro[3.5]non-7-yl)phenyl]-4,5-dihydro-3H-2,3-benzodiazepine-3-carboxamide] yielded an IC50 (MOLP-8 cells) of 140 nM, an IC50 (B16F10 cells) of 170 nM and an IC50 (BRD4 (BD1)) of 80 nM. The IC50 (MOLM-13 cells) was 220 nM.

In the case of `CNC(=O)N1N=C(c2cccc(N3CC4(CCS4(=O)=O)C3)c2)c2cc(OC)c(OC)cc2CC1C` (racemic) [Example 14, 1-[3-(1,1-dioxido-1-thia-6-azaspiro[3.3]hept-6-yl)phenyl]-7,8-dimethoxy-N,4-dimethyl-4,5-dihydro-3H-2,3-benzodiazepine-3-carboxamide], the IC50 (MOLP-8 cells) is reported as 240 nM, the IC50 (B16F10 cells) is reported as 260 nM and the IC50 (BRD4 (BD1)) is reported as 170 nM. For the same compound, the IC50 (MOLM-13 cells) was 330 nM.

`CNC(=O)N1N=C(c2ccc(F)c(N3CC4(CCS4(=O)=O)C3)c2)c2cc(OC)c(OC)cc2CC1C` (racemic) [Example 15, (±)-1-[3-(1,1-dioxido-1-thia-6-azaspiro[3.3]hept-6-yl)-4-fluorophenyl]-7,8-dimethoxy-N,4-dimethyl-4,5-dihydro-3H-2,3-benzodiazepine-3-carboxamide] gave an IC50 (MOLP-8 cells) of 480 nM, an IC50 (B16F10 cells) of 590 nM and an IC50 (BRD4 (BD1)) of 250 nM. For the same compound, the IC50 (MOLM-13 cells) was 600 nM.

Work on `CNC(=O)N1N=C(c2ccc(N3CC4(CCS4(=O)=O)C3)cc2)c2cc(OC(F)(F)F)ccc2CC1C` (racemic) [Example 18, (±)-1-[4-(1,1-dioxido-1-thia-6-azaspiro[3.3]hept-6-yl)phenyl]-N,4-dimethyl-8-(trifluoromethoxy)-4,5-dihydro-3H-2,3-benzodiazepine-3-carboxamide] yielded an IC50 (MOLP-8 cells) of 60 nM, an IC50 (B16F10 cells) of 60 nM and an IC50 (BRD4 (BD1)) of 40 nM. It also gave an IC50 (MOLM-13 cells) of 70 nM.

Compound `CNC(=O)N1N=C(c2ccc(N3CCN4CCCC4C3)cc2)c2cc(OC)c(OC)cc2CC1C` (racemic) [Example 30, (±)-1-[4-(hexahydropyrrolo[1,2-a]pyrazin-2(1H)-yl)phenyl]-7,8-dimethoxy-N,4-dimethyl-4,5-dihydro-3H-2,3-benzodiazepine-3-carboxamide] has an IC50 (MOLP-8 cells) of 90 nM, an IC50 (BRD4 (BD1)) of 70 nM and an IC50 (MOLM-13 cells) of 200 nM.

`CNC(=O)N1N=C(c2ccc(N3C[C@H]4CN(C)C[C@H]4C3)cc2)c2cc(OC)c(OC)cc2CC1C` (mixture of isomers) [Example 33, (±)-7,8-dimethoxy-N,4-dimethyl-1-{4-[(3aR,6aS)-5-methylhexahydropyrrolo[3,4-c]pyrrol-2(1H)-yl]phenyl}-4,5-dihydro-3H-2,3-benzodiazepine-3-carboxamide] showed an IC50 (MOLP-8 cells) of 110 nM, an IC50 (BRD4 (BD1)) of 90 nM and an IC50 (MOLM-13 cells) of 220 nM.

Compound `CNC(=O)N1N=C(c2ccc(N3C[C@H]4CC[C@@H](C3)O4)cc2)c2cc(OC)c(OC)cc2C[C@H]1C` [Example 4.1, (4R)-7,8-dimethoxy-N,4-dimethyl-1-[4-(8-oxa-3-azabicyclo[3.2.1]oct-3-yl)phenyl]-4,5-dihydro-3H-2,3-benzodiazepine-3-carboxamide] has an IC50 (BRD4 (BD1)) of 1850 nM and an IC50 (MOLM-13 cells) of 6090 nM.

`CNC(=O)N1N=C(c2ccc(N3CC4(COC4)C3)cc2)c2cc(OC)c(OC)cc2C[C@@H]1C` [Example 5.1, (4S)-7,8-dimethoxy-N,4-dimethyl-1-[4-(2-oxa-6-azaspiro[3.3]hept-6-yl)phenyl]-4,5-dihydro-3H-2,3-benzodiazepine-3-carboxamide] was tested, and the IC50 (BRD4 (BD1)) was 20 nM and the IC50 (MOLM-13 cells) was 110 nM.

`CNC(=O)N1N=C(c2ccc(N3[C@@H]4CC[C@H]3CC(=O)C4)cc2)c2cc(OC)c(OC)cc2C[C@H]1C` [Example 6.1, (4R)-7,8-dimethoxy-N,4 dimethyl-1-[4-(3-oxo-8-azabicyclo[3.2.1]oct-8-yl)phenyl]-4,5-dihydro-3H-2,3-benzodiazepine-3-carboxamide] was tested, and the IC50 (BRD4 (BD1)) was 1230 nM and the IC50 (MOLM-13 cells) was 450 nM.

For `CNC(=O)N1N=C(c2ccc(N3[C@@H]4CC[C@H]3CC(=O)C4)cc2)c2cc(OC)c(OC)cc2C[C@@H]1C` [Example 6.2, (4S)-7,8-dimethoxy-N,4-dimethyl-1-[4-(3-oxo-8-azabicyclo[3.2.1]oct-8-yl)phenyl]-4,5-dihydro-3H-2,3-benzodiazepine-3-carboxamide], the IC50 (BRD4 (BD1)) was 20 nM and the IC50 (MOLM-13 cells) was 50 nM.
